These molecules were tested on HeLa cells (assay: Measurement of the cell cycle inhibition in HeLa cells). Conditions: HeLa B cells, 20 h incubation with compound; FACS ratio G0/G1 to G2/M vs DMSO; concentration at which 50% of cells are in cell cycle arrest.
Type: cell-based
Description: Measurement of the Cell Cycle Inhibition in HeLa Cells—Test Procedure:
HeLa B cells are grown in DMEM (Life Technologies Cat No 21969-035) supplemented with 10% Fetal Calf Serum (FCS, Life Technologies Cat No 10270-106) in 180 cm^2 Flasks at 37° C., 92% humidity and 7% CO2.
Cells are seeded at 5×10^4 cells per well in a 24-well plate. Twenty hours later the compounds are added such that the final concentration is 1×10^−6, 3.3×10^−7, 1.1×10^−7, 3.7×10^−8, 1.2×10^−8 and 1×10^−9 M in a final volume of 500 μl. DMSO alone is added to 6 wells as a control. Cells are incubated with the compounds as above for 20 h. Then cells are observed under the microscope to check for cell death, and the 24-well plate is then centrifuged at 1200 rpm for 5 min at 20° C., acceleration position 7 and break position 5 (Eppendorf centrifuge 5804R).
The supernatant is removed and the cells lysed with 0.5 ml RNase Buffer (10 mM NaCitrate, 0.1% Nonidet NP40, 50 μg/ml RNase, 10 μg/ml Propidium iodide) per well. The plates are then incubated for at least 30 min in the dark at RT and the samples then transferred to FACS tubes. Samples are measured in a FACS machine (Beckton Dickinson) at the following settings:
Instrument Settings of the FACS Calibur:
The ratio of cells in G0/G1-phase to G2/M phase is calculated and compared to the value for the controls (DMSO) only. Results are given in table 2 as the IC50 value calculated from the concentration curve plotted against the cell cycle ratio and indicate the compound concentration at which 50% of cells are in cell cycle arrest after treatment with the compound.

| IC50 [nM] | SMILES |
| --- | --- |
| 19 | CC1CCN(c2nc(-n3ccnn3)nc(Cl)c2-c2c(F)cccc2F)CC1 [Example 117] |
| 50 | CC[C@H](C)Nc1nc(-n2cccn2)nc(Cl)c1-c1ccc(C)cc1F [Example 102] |
| 38 | CCN(CC)c1nc(-c2cnccn2)nc(Cl)c1-c1c(F)cc(F)cc1F [Example 26] |
| 29 | CON=C(N)c1nc(Cl)c(-c2ccc(F)cc2Cl)c(N[C@@H](C)C(C)C)n1 [Example 218] |
| 38 | CON=C(N)c1nc(Cl)c(-c2c(F)cccc2F)c(N[C@@H](C)C(C)C)n1 [Example 196] |
| 26 | CC(C)C(C)Nc1nc(-c2cccnn2)nc(Cl)c1-c1c(F)cc(F)cc1F (centres unmarked) [Example 80] |
| 34 | CCC(C)Nc1nc(-n2ccc(N)n2)nc(Cl)c1-c1c(F)cccc1Cl (centres unmarked) [Example 148] |
| 46 | CC(C)Nc1nc(-n2ccc(C(F)(F)F)n2)nc(Cl)c1-c1c(F)cc(F)cc1F [Example 16] |
| 25 | CC(C)Nc1nc(C(N)=NO)nc(Cl)c1-c1c(F)cc(F)cc1F [Example 144] |
| 47 | COc1ccc(-c2c(Cl)nc(C(C)=NO)nc2N[C@@H](C)C(C)C)c(Cl)c1 [Example 200] |
| 32 | Cc1nc(C)n(-c2nc(Cl)c(-c3c(F)cccc3F)c(N3CCC(C)CC3)n2)n1 [Example 118] |
| 13 | C[C@H](Nc1nc(N(C)N)nc(Cl)c1-c1c(F)cc(F)cc1F)C(F)(F)F [Example 9] |
| 21 | C[C@H](Nc1nc(-n2nccc2[N+](=O)[O-])nc(Cl)c1-c1c(F)cc(F)cc1F)C(F)(F)F [Example 7] |
| 39 | Cc1cn(-c2nc(Cl)c(-c3c(F)cc(F)cc3F)c(NC(C)C(F)(F)F)n2)nc1-c1ccco1 (centres unmarked) [Example 95] |
| 34 | CC1CCN(c2nc(-c3ccccn3)nc(Cl)c2-c2c(F)cccc2F)CC1 [Example 81] |
| 4.8 | C[C@H](Nc1nc(-n2cccn2)nc(Cl)c1-c1c(F)cc(F)cc1F)C(F)(F)F [Example 1] |
| 22 | CCC(C)Nc1nc(-c2ccccn2)nc(Cl)c1-c1c(F)cc(OC)cc1F (centres unmarked) [Example 63] |
| 8.3 | C[C@H](Nc1nc(-n2cnc(SCc3ccccc3)n2)nc(Cl)c1-c1c(F)cc(F)cc1F)C(F)(F)F [Example 151] |
| 12 | CCC(C)Nc1nc(-n2cccn2)nc(Cl)c1-c1c(F)cccc1Cl (centres unmarked) [Example 106] |
| 21 | CC1CCN(c2nc(C(N)=NO)nc(Cl)c2-c2c(F)cccc2F)CC1 [Example 194] |
| 29 | CON=C(N)c1nc(Cl)c(-c2ccc([N+](=O)[O-])cc2Cl)c(N[C@@H](C)C(C)C)n1 [Example 219] |

| IC50 [nM] | SMILES |
| --- | --- |
| 38 | CC1CCCCN1c1nc(-n2ccnn2)nc(Cl)c1-c1c(F)cccc1F (centres unmarked) [Example 126] |
| 50 | Cc1cnn(-c2nc(Cl)c(-c3c(F)cc(F)cc3F)c(NC(C)C)n2)c1 [Example 24] |
| 29 | CCC(C)Nc1nc(-n2ccnn2)nc(Cl)c1-c1c(C)cccc1F (centres unmarked) [Example 111] |
| 38 | CON=C(N)c1nc(Cl)c(-c2cc(F)ccc2Cl)c(N[C@@H](C)C(C)C)n1 [Example 202] |
| 51 | CC(=O)NC(=O)c1nc(Cl)c(-c2c(F)cccc2F)c(N2CCC(C)CC2)n1 [Example 184] |
| 23 | CC(C)=NOc1nc(Cl)c(-c2c(F)cc(F)cc2F)c(N[C@@H](C)C(F)(F)F)n1 [Example 204] |
| 30 | CCC(C)Nc1nc(-n2cc(C#N)cn2)nc(Cl)c1-c1c(F)cccc1Cl (centres unmarked) [Example 163] |
| 25 | CCC(C)Nc1nc(-n2cncn2)nc(Cl)c1-c1c(C)cccc1F (centres unmarked) [Example 110] |
| 14 | C[C@H](Nc1nc(-c2nccs2)nc(Cl)c1-c1c(F)cc(F)cc1F)C(F)(F)F [Example 129] |
| 30 | CC(C)C(C)Nc1nc(-c2ccccn2)nc(Cl)c1-c1c(F)cccc1F (centres unmarked) [Example 82] |
| 39 | CCCNc1nc(-n2cccn2)nc(Cl)c1-c1ccc(C)cc1F [Example 103] |
| 32 | CC(C)Nc1nc(-n2ccc(C(C)C)n2)nc(Cl)c1-c1c(F)cc(F)cc1F [Example 22] |
| 41 | C[C@H](Nc1nc(C(N)=S)nc(Cl)c1-c1c(F)cccc1Cl)C(F)(F)F [Example 169] |
| 14 | Cc1ccnc(-c2nc(Cl)c(-c3c(F)cc(F)cc3F)c(N[C@@H](C)C(F)(F)F)n2)c1 [Example 14] |
| 8.3 | C[C@H](Nc1nc(-n2ccnn2)nc(Cl)c1-c1c(F)cc(F)cc1F)C(F)(F)F [Example 205] |
| 9 | CC(C)[C@H](C)Nc1nc(C(N)=NO)nc(Cl)c1-c1ccc(F)cc1Cl [Example 193] |
| 21 | CC1CCN(c2nc(-c3cccnn3)nc(Cl)c2-c2c(F)cc(F)cc2F)CC1 [Example 79] |
| 45 | CC(CO)Nc1nc(-n2cc(Br)cn2)nc(Cl)c1-c1c(F)cc(F)cc1F (centres unmarked) [Example 124] |
| 16 | Cc1cccc(-c2nc(Cl)c(-c3c(F)cc(F)cc3F)c(N[C@@H](C)C(F)(F)F)n2)n1 [Example 13] |
| 26 | Cc1ccn(-c2nc(Cl)c(-c3c(F)cc(F)cc3F)c(N[C@H](C)C(C)C)n2)n1 [Example 92] |

Further lines, the molecule ahead of its results:

| SMILES | IC50 [nM] |
| --- | --- |
| Cc1ccc(-c2c(Cl)nc(-n3cccn3)nc2N2CCC(C)CC2)c(F)c1 [Example 87] | 39 |
| Fc1cc(F)c(-c2c(Cl)nc(-n3cc(Br)cn3)nc2N2CCCCC2)c(F)c1 [Example 53] | 26 |
| CC[C@H](C)Nc1nc(C(N)=NO)nc(Cl)c1-c1ccc(F)cc1Cl [Example 168] | 36 |
| CC1CCCN1c1nc(C(N)=NO)nc(Cl)c1-c1ccc(F)cc1Cl (centres unmarked) [Example 208] | 56 |
| CC1CCCN1c1nc(-n2ccnn2)nc(Cl)c1-c1c(F)cc(F)cc1F (centres unmarked) [Example 76] | 7.6 |
| CON=C(N)c1nc(Cl)c(-c2c(F)cc(OC)cc2F)c(N2CCC(C)CC2)n1 [Example 197] | 42 |
| Fc1cc(F)c(-c2c(Cl)nc(-n3cccn3)nc2N2CCCCC2)c(F)c1 [Example 51] | 6.5 |
| COc1cc(F)c(-c2c(Cl)nc(C(N)=O)nc2N[C@@H](C)C(F)(F)F)c(F)c1 [Example 189] | 30 |
| Fc1cc(F)c(-c2c(Cl)nc(-n3ccnn3)nc2N2CCCCC2)c(F)c1 [Example 56] | 11 |
| C=CCCN(C)c1nc(-n2ccc(N)n2)nc(Cl)c1-c1c(F)cccc1Cl [Example 131] | 48 |
| COc1cc(F)c(-c2c(Cl)nc(-n3cncn3)nc2N2CCC(C)CC2)c(F)c1 [Example 68] | 20 |
| Cc1ccc(-c2c(Cl)nc(-n3cccn3)nc2N2CCCC(C)C2)c(F)c1 (centres unmarked) [Example 99] | 39 |
| Cc1nc(-n2ccnn2)nc(N[C@@H](C)C(F)(F)F)c1-c1c(F)cc(F)cc1F [Example 157] | 19 |
| Cc1nc(C)n(-c2nc(Cl)c(-c3c(F)cc(F)cc3F)c(N3CCCCC3)n2)n1 [Example 54] | 23 |
| C=CCCN(C)c1nc(-n2cccn2)nc(Cl)c1-c1ccc(F)cc1Cl [Example 132] | 46 |
| COc1cc(F)c(-c2c(Cl)nc(C(N)=S)nc2N[C@@H](C)C(F)(F)F)c(F)c1 [Example 203] | 47 |
| C[C@H](Nc1nc(-n2nccn2)nc(Br)c1-c1c(F)cc(F)cc1F)C(F)(F)F [Example 165] | 30 |

| SMILES | IC50 [nM] |
| --- | --- |
| COc1cc(F)c(-c2c(Cl)nc(C(N)=NO)nc2N2CCC(C)CC2)c(F)c1 [Example 190] | 26 |
| CC1CCCCN1c1nc(-n2cccn2)nc(Br)c1-c1c(F)cc(F)cc1F (centres unmarked) [Example 161] | 50 |
| Cc1nc(C(N)=NO)nc(N[C@@H](C)C(F)(F)F)c1-c1c(F)cc(F)cc1F [Example 171] | 54 |
| Cc1nc(C)n(-c2nc(Cl)c(-c3c(F)cc(F)cc3F)c(N3CC=CCC3)n2)n1 [Example 59] | 43 |
| CON=C(N)c1nc(Cl)c(-c2ccc(F)cc2Cl)c(N[C@@H](C)C(F)(F)F)n1 [Example 211] | 24 |
| Fc1cc(F)c(-c2c(Cl)nc(-n3cncn3)nc2N2CCCCC2)c(F)c1 [Example 52] | 22 |
| Cc1cc(C)n(-c2nc(Cl)c(-c3c(F)cc(F)cc3F)c(N3CCC(C)CC3)n2)n1 [Example 30] | 48 |
| CON=C(N)c1nc(Cl)c(-c2c(F)cc(OC)cc2F)c(N[C@@H](C)C(F)(F)F)n1 [Example 182] | 11 |
| CC1CCCCN1c1nc(-n2cccn2)nc(Cl)c1-c1c(F)cc(F)cc1F (centres unmarked) [Example 96] | 29 |
| CC1CCN(c2nc(C(N)=NO)nc(Cl)c2-c2c(F)cc(F)cc2F)CC1 [Example 58] | 26 |
| Cc1nc(-n2cncn2)nc(N2CCC(C)CC2)c1-c1c(F)cc(F)cc1F [Example 93] | 39 |
| CCOC(=O)C(C)C=NNc1nc(Cl)c(-c2c(F)cc(F)cc2F)c(N[C@@H](C)C(F)(F)F)n1 (some centres unmarked) [Example 152] | 24 |
| Cc1ccc(-c2c(Cl)nc(-n3cc(Cl)cn3)nc2NCC(F)(F)F)c(F)c1 [Example 150] | 50 |
| C=CCN(C)c1nc(-n2ccnn2)nc(Cl)c1-c1c(F)cc(F)cc1F [Example 206] | 20 |
| CC1CCCN(c2nc(-n3cncn3)nc(Cl)c2-c2c(F)cc(F)cc2F)C1 (centres unmarked) [Example 44] | 18 |
| O=C1CCCN1c1nc(Cl)c(-c2c(F)cc(F)cc2F)c(NCC(F)(F)F)n1 [Example 210] | 39 |

From patent US20080146593A1, “Substituted 5-Phenyl Pyrimidines I In Therapy” (Basf Aktiengesellschaft, priority 2005, published 2008)
